The molecules below were run against T1, human oxytocin receptor (Homo sapiens, UniProt P30559) (assay: Oxytocin binding in Chinese Hamster Ovary cell membranes expressing human oxytocin receptors). Conditions: 100 nM, CHO cell membranes, [3H]oxytocin, values without parentheses, read-out: OT % inhibition @ 100% nM.
T1 construct: host or cells: CHO cells (pcDNA3.1 vector)
T1 sequence (P30559 1-389): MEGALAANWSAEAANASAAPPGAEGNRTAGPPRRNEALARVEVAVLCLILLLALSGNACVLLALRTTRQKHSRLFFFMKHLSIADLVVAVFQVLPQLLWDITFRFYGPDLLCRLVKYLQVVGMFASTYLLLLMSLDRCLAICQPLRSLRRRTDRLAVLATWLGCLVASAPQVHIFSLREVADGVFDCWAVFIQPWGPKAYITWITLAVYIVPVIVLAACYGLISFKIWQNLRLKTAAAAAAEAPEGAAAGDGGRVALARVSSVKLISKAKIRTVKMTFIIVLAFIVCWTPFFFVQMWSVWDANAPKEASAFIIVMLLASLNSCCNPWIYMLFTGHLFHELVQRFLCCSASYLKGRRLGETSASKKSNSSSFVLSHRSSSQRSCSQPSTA

Row | Structure (SMILES) | inhibition at 0.1 µM [%]
1 | CCOc1ccccc1-c1cc(OC)c(C(=O)N2Cc3cccn3Cc3ccccc32)cc1Cl [Example 17, 10-{[6-Chloro-3-methoxy-2′-ethoxy[1,1′-biphenyl]-4-yl]carbonyl}-10,11-dihydro-5H-pyrrolo[2,1-c][1,4]benzodiazepine] | 28
2 | COc1cc(C(=O)N2Cc3cccn3Cc3ccccc32)ccc1-c1ccccc1C(F)(F)F [Example 19D, (10,11-Dihydro-5H-pyrrolo[2,1-c][1,4]benzodiazepin-10-yl)-(2-methoxy-2′-trifluoromethyl-[1,1′-biphenyl]-4-yl)-methanone] | 97
3 | O=C(c1ccc(-c2ccccc2)nc1)N1Cc2cccn2Cc2ccccc21 [Example 29, (6-Phenyl-pyridin-3-yl)-[10,11-dihydro-5H-pyrrolo[2,1-c][1,4]benzodiazepin-10-yl]methanone] | 51
4 | Cc1cc(C(=O)N2Cc3cccn3Cc3ccccc32)cc(C)c1-n1c(C)ccc1C [Example 30, [4-(2,5-Dimethyl-1H-pyrrol-1-yl)-3,5-dimethyl-phenyl][10,11-dihydro-5H-pyrrolo[2,1-c][1,4]benzodiazepin-10-yl]methanone] | 48
5 | Cc1cc(C(=O)N2Cc3cccn3Cc3ccccc32)ccc1-c1ccncc1 [Example 31, [3-Methyl-4-(4-pyridinyl)phenyl]-[10,11-dihydro-5H-pyrrolo[2,1-c][1,4]benzodiazepin-10-yl]methanone] | 69
6 | COc1ccccc1-c1ccc(C(=O)N2Cc3ccc(C(=O)N4CCN(C)CC4)n3Cc3ccccc32)cc1C [Example 49, {10-[(2′-Methoxy-2-methyl[1,1′-biphenyl]-4-yl)carbonyl]-10,11-dihydro-5H-pyrrolo[2,1-c][1,4]benzodiazepin-3-yl}(4-methyl-1-piperazinyl)methanone] | 92
7 | Cc1ccccc1-c1ccc(C(=O)N2Cc3ccc(C(=O)N4CCN(C)CC4)n3Cc3ccccc32)cc1C [Example 50, {10-[(2,2′-Dimethyl[1,1′-biphenyl]-4-yl)carbonyl]-10,11-dihydro-5H-pyrrolo[2,1-c][1,4]benzodiazepin-3-yl}(4-methyl-1-piperazinyl)methanone] | 95
8 | COc1cccc(-c2ccc(C(=O)N3Cc4ccc(C(=O)N5CCN(C)CC5)n4Cc4ccccc43)cc2C)c1 [Example 51, {10-[(3′-Methoxy-2-methyl[1,1′-biphenyl]-4-yl)carbonyl]-10,11-dihydro-5H-pyrrolo[2,1-c][1,4]benzodiazepin-3-yl}(4-methyl-1-piperazinyl)methanone] | 81
9 | Cc1ccccc1-c1ccc(C(=O)N2Cc3ccc(C(=O)N4CCN(C)CC4)n3Cc3ccccc32)cc1 [Example 52, {10-[(2′-Methyl[1,1′-biphenyl]-4-yl)carbonyl]-10,11-dihydro-5H-pyrrolo[2,1-c][1,4]benzodiazepin-3-yl}(4-methyl-1-piperazinyl)methanone] | 86
10 | COc1cc(C(=O)N2Cc3ccc(C(=O)N4CCN(C)CC4)n3Cc3ccccc32)ccc1-c1ccccc1C [Example 53, {10-[(2-Methoxy-2′-methyl[1,1′-biphenyl]-4-yl)carbonyl]-10,11-dihydro-5H-pyrrolo[2,1-c][1,4]benzodiazepin-3-yl}(4-methyl-1-piperazinyl)methanone] | 89
11 | COc1cccc(-c2cc(OC)c(C(=O)N3Cc4ccc(C(=O)N5CCN(C)CC5)n4Cc4ccccc43)cc2Cl)c1 [Example 54, {10-[(6-Chloro-3,3′-dimethoxy[1,1′-biphenyl]-4-yl)carbonyl]-10,11-dihydro-5H-pyrrolo[2,1-c][1,4]benzodiazepin-3-yl}(4-methyl-1-piperazinyl)methanone] | 78
12 | COc1cc(C(=O)N2Cc3ccc(C(=O)N4CCN(C)CC4)n3Cc3ccccc32)ccc1-c1cccc2ccccc12 [Example 55, {10-[3-Methoxy-4-(1-naphthyl)benzoyl]-10,11-dihydro-5H-pyrrolo[2,1-c][1,4]benzodiazepin-3-yl}(4-methyl-1-piperazinyl)methanone] | 67
13 | COc1ccccc1-c1ccc(C(=O)N2Cc3ccc(C(=O)N4CCN(C)CC4)n3Cc3ccccc32)cc1OC [Example 56, {10-[(2,2′-Dimethoxy[1,1′-biphenyl]-4-yl)carbonyl]-10,11-dihydro-5H-pyrrolo[2,1-c][1,4]benzodiazepin-3-yl}(4-methyl-1-piperazinyl)methanone] | 68
14 | COc1cccc(-c2ccc(C(=O)N3Cc4ccc(C(=O)N5CCN(C)CC5)n4Cc4ccccc43)cc2OC)c1 [Example 57, {10-[(2,3′-Dimethoxy[1,1′-biphenyl]-4-yl)carbonyl]-10,11-dihydro-5H-pyrrolo[2,1-c][1,4]benzodiazepin-3-yl}(4-methyl-1-piperazinyl)methanone] | 76
15 | CN1CCN(C(=O)c2ccc3n2Cc2ccccc2N(C(=O)c2ccc(-c4cccc5ccccc45)cc2Cl)C3)CC1 [Example 58, {10-[2-Chloro-4-(1-naphthyl)benzoyl]-10,11-dihydro-5H-pyrrolo[2,1-c][1,4]benzodiazepin-3-yl}(4-methyl-1-piperazinyl)methanone] | 24
16 | COc1ccccc1-c1ccc(C(=O)N2Cc3ccc(C(=O)N4CCCN(C)CC4)n3Cc3ccccc32)cc1C [Example 62, {10-[(2′-Methoxy-2-methyl[1,1′-biphenyl]-4-yl)carbonyl]-10,11-dihydro-5H-pyrrolo[2,1-c][1,4]benzodiazepin-3-yl}(4-methyl-1,4-diazepan-1-yl)methanone] | 91
17 | Cc1ccccc1-c1ccc(C(=O)N2Cc3ccc(C(=O)N4CCCN(C)CC4)n3Cc3ccccc32)cc1C [Example 63, {10-[(2,2′-Dimethyl[1,1′-biphenyl]-4-yl)carbonyl]-10,11-dihydro-5H-pyrrolo[2,1-c][1,4]benzodiazepin-3-yl}(4-methyl-1,4-diazepan-1-yl)methanone] | 98
18 | COc1cccc(-c2ccc(C(=O)N3Cc4ccc(C(=O)N5CCCN(C)CC5)n4Cc4ccccc43)cc2C)c1 [Example 64, {10-[(3′-Methoxy-2-methyl[1,1′-biphenyl]-4-yl)carbonyl]-10,11-dihydro-5H-pyrrolo[2,1-c][1,4]benzodiazepin-3-yl}(4-methyl-1,4-diazepan-1-yl)methanone] | 74
19 | Cc1ccccc1-c1ccc(C(=O)N2Cc3ccc(C(=O)N4CCCN(C)CC4)n3Cc3ccccc32)cc1 [Example 65, {10-[(2′-Methyl[1,1′-biphenyl]-4-yl)carbonyl]-10,11-dihydro-5H-pyrrolo[2,1-c][1,4]benzodiazepin-3-yl}(4-methyl-1,4-diazepan-1-yl)methanone] | 68
20 | COc1cc(C(=O)N2Cc3ccc(C(=O)N4CCCN(C)CC4)n3Cc3ccccc32)ccc1-c1ccccc1C [Example 66, {10-[(2-Methoxy-2′-methyl[1,1′-biphenyl]-4-yl)carbonyl]-10,11-dihydro-5H-pyrrolo[2,1-c][1,4]benzodiazepin-3-yl}(4-methyl-1,4-diazepan-1-yl)methanone] | 87
21 | COc1cccc(-c2cc(OC)c(C(=O)N3Cc4ccc(C(=O)N5CCCN(C)CC5)n4Cc4ccccc43)cc2Cl)c1 [Example 67, {10-[(6-Chloro-3,3′-dimethoxy[1,1′-biphenyl]-4-yl)carbonyl]-10,11-dihydro-5H-pyrrolo[2,1-c][1,4]benzodiazepin-3-yl}(4-methyl-1,4-diazepan-1-yl)methanone] | 79
22 | COc1cc(C(=O)N2Cc3ccc(C(=O)N4CCCN(C)CC4)n3Cc3ccccc32)ccc1-c1cccc2ccccc12 [Example 68, {10-[3-Methoxy-4-(1-naphthyl)benzoyl]-10,11-dihydro-5H-pyrrolo[2,1-c][1,4]benzodiazepin-3-yl}(4-methyl-1,4-diazepan-1-yl)methanone] | 64
23 | COc1ccccc1-c1ccc(C(=O)N2Cc3ccc(C(=O)N4CCCN(C)CC4)n3Cc3ccccc32)cc1OC [Example 69, {10-[(2,2′-Dimethoxy[1,1′-biphenyl]-4-yl)carbonyl]-10,11-dihydro-5H-pyrrolo[2,1-c][1,4]benzodiazepin-3-yl}(4-methyl-1,4-diazepan-1-yl)methanone] | 71
24 | COc1cccc(-c2ccc(C(=O)N3Cc4ccc(C(=O)N5CCCN(C)CC5)n4Cc4ccccc43)cc2OC)c1 [Example 70, {10-[(2,3′-Dimethoxy[1,1′-biphenyl]-4-yl)carbonyl]-10,11-dihydro-5H-pyrrolo[2,1-c][1,4]benzodiazepin-3-yl}(4-methyl-1,4-diazepan-1-yl)methanone] | 75
25 | CN1CCCN(C(=O)c2ccc3n2Cc2ccccc2N(C(=O)c2ccc(-c4cccc5ccccc45)cc2Cl)C3)CC1 [Example 71, {10-[2-Chloro-4-(1-naphthyl)benzoyl]-10,11-dihydro-5H-pyrrolo[2,1-c][1,4]benzodiazepin-3-yl}(4-methyl-1,4-diazepan-1-yl)methanone] | 25
26 | COc1ccccc1-c1ccc(C(=O)N2Cc3ccc(C(=O)NCCCN(C)C)n3Cc3ccccc32)cc1C [Example 72, N-[3-(Dimethylamino)propyl]-10-[(2′-methoxy-2-methyl[1,1′-biphenyl]-4-yl)carbonyl]-10,11-dihydro-5H-pyrrolo[2,1-c][1,4]benzodiazepine-3-carboxamide] | 74
27 | Cc1ccccc1-c1ccc(C(=O)N2Cc3ccc(C(=O)NCCCN(C)C)n3Cc3ccccc32)cc1C [Example 73, N-[3-(Dimethylamino)propyl]-10-[(2,2′-dimethyl[1,1′-biphenyl]-4-yl)carbonyl]-10,11-dihydro-5H-pyrrolo[2,1-c][1,4]benzodiazepine-3-carboxamide] | 85
